Results taken from patent publication US12534748B2, “Engineered beta-subunit of tryptophan synthase for production of non-canonical amino acids” (California Institute of Technology, priority 2015, dated 2026).

Molecular target: T1, Pyrococcus furiosus TrpB variant M144T N166D (Table 6 prints N166T), SEQ ID NO: 20 (Pyrococcus furiosus, UniProt Q8U093, M144T/N166D)
T1 sequence (Q8U093 with tags, fused parts or gaps M144T/N166D): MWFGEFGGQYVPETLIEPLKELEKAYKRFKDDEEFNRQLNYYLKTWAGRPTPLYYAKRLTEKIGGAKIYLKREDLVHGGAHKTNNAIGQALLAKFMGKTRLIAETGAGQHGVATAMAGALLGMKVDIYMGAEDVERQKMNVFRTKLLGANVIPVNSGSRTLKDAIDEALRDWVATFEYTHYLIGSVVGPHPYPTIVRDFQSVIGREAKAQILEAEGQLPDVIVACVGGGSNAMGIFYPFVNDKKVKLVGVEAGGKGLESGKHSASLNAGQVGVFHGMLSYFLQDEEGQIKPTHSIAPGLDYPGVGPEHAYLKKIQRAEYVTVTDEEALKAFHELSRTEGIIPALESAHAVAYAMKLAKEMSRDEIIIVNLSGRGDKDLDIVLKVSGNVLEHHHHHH
Test: Tryptophan formation from L-serine and indole, kinetics of PfTrpB double mutant
Description: Data were collected between 550 and 250 nm on a UV1800 Shimadzu spectrophotometer (Shimadzu) using 0.25-20 μM of enzyme in 200 mM potassium phosphate (pH 8.0) in a quartz cuvette. Samples were incubated at 75° C. for >3 min to ensure a stable temperature was reached. PfTrpB activity (kcat) was measured by monitoring tryptophan formation at 290 nm using Δe290=1.89 mM^−1·cm^−1.

Structure (SMILES): c1ccc2[nH]ccc2c1 [indole]
- kcat (75° C.): 0.83 s⁻¹
- kcat increase (M144T and N166D in PfTrpB): at least 2 fold
